pEC50, pIC50: −log10 of the molar value.
Legend:
[1] = Liver Microsome Stability Assay (human); settings: human liver microsomes, with NADPH, 1.0 uM compound
Protocol: (§1) Stability of a compound was assessed in the presence of liver microsomes from various sources—mouse, rat, monkey and human liver microsomes. 1.0 uM compound, 0.4% DMSO in 0.1 M Potassium Phosphate with 1.0 mg/mL liver microsomes, were incubated at 37° C. with or without 1 mM NADPH. The samples were quenched at 0, and 30 minutes.

[2] = tested on: IL-2-FL/Gaussia Luciferase; test: Dox Induced IL2-FL-Gluc Assay; format: cell-based; settings: for pIC50: 24 hr Dox induction, 293FRT/TO cells, read-out: 24 hr Dox Inducible IL2FLGluc 293FRT/TO: Mean IC50; for 24 hr Dox Inducible IL2FLGluc 293FRT/TO: IL2/PD1: ratio of IL2FLGluc IC50 to PD1ssGluc IC50
Procedure, shortened: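 Stable Flp-In 293 T-REx cells carrying doxycycline-inducible full-length IL-2 (aa 1-153) fused to Gaussia luciferase, plated the day before assay. Compound dilutions added in medium containing doxycycline, incubated at 37 °C, 5% CO2. Undefined stereocentres mean data refer to stereoisomer mixtures.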

[3] = Liver Microsome Stability Assay (rat); settings: rat liver microsomes, with NADPH, 1.0 uM compound
Protocol: as §1

[4] = tested on: PD1-ss+10aa/Gaussia Luciferase; test: Dox-Induced PD1-ss-Gluc Assay; format: cell-based; settings: 24 hr Dox induction; 293FRT/TO cells; read-out: 24 hr Dox Inducible PD1ssGluc 293FRT/TO: Mean IC50
Procedure, shortened: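 Flp-In 293 T-REx, stable line; Tet-regulated PD1-ss+10aa fused to Gaussia luciferase; plated day prior; cpd + doxycycline in DMSO/media; 37 °C, 5% CO2.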

[5] = tested on: multiple myeloma cell line U266B1; test: U266 Cell Viability Assay; format: cell-based, human; settings: Homo sapiens, U-266, 48 h, U266B1 cells, Celltiter-Glo
Procedure, shortened: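 U266B1 multiple myeloma cells in RPMI 1640/10% FBS were treated with compound dilutions for 48 h at 37 °C, 5% CO2. Viability was measured by CellTiter-Glo luminescence; compounds drawn without stereochemistry were tested as stereoisomer mixtures.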

[6] = tested on: HER3-ss+4aa/Gaussia Luciferase; test: Dox-Induced Her3-ss-Gluc Assay; format: cell-based; settings: 24 hr Dox induction; 293FRT/TO cells; read-out: 24 hr Dox Inducible Her3(ss + 4)Gluc 293FRT/TO: Mean IC50
From the text: Flp-In 293 T-REx™ cells were transfected with pcDNA™5/FRT/TO plasmid inserted with cDNA encoding Gaussia Luciferase fused to the 3′ end of cDNA encoding HER3 signal sequence plus 4 amino acids (N-[…]-C) (SEQ ID NO: 2). Transfected cells were selected for resistance to the selectable markers Hygromycin and Blasticidin to create a stable cell line that contained the HER3-ss+4aa/Gaussia Luciferase cDNA insert whose expression was regulated under the T-REx™ system. The day before assay, cells were trypsinized and plated in 384-well tissue culture plates. The next day, compound dilutions in DMSO/media containing doxycycline were added to the wells and incubated at 37° C., 5% CO2.
For chemical structures that include one or more stereoisomers, but are illustrated without indicating stereochemistry, the assay data refers to a mixture of stereoisomers.

[7] = tested on: multiple myeloma cell line NCI-H929; test: H929 Cell Viability Assay; format: cell-based, human; settings: Homo sapiens, NCI-H929, 48 h, NCI-H929 cells, Celltiter-Glo
Procedure, shortened: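 NCI-H929 cells in RPMI 1640 with 10% FBS were treated with compound dilutions for 48 h at 37° C, 5% CO2. Viability was read by CellTiter-Glo luminescence. Undefined stereocentres denote stereoisomer mixtures.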

[8] = Liver Microsome Stability Assay (mouse); settings: mouse liver microsomes, with NADPH, 1.0 uM compound
Protocol: as §1

[9] = Liver Microsome Stability Assay (monkey); settings: monkey liver microsomes, with NADPH, 1.0 uM compound
Protocol: as §1

[10] = tested on: TNFα-FL/Gaussia Luciferase; test: Dox Induced TNFα-FL-Gluc Assay; format: cell-based; settings: for pIC50: 24 hr Dox induction, 293FRT/TO cells, read-out: 24 hr Dox Inducible TNFaFLGluc 293FRT/TO: Mean IC50; for 24 hr Dox Inducible TNFaFLGluc 293FRT/TO: TNF/PD1: ratio of TNFaFLGluc IC50 to PD1ssGluc IC50
Procedure, shortened: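 Flp-In 293 T-REx cells stably carrying doxycycline-inducible full-length TNFα (aa 1-233) fused to Gaussia luciferase. Plated the day before, then treated with compound dilutions in doxycycline-containing medium at 37° C, 5% CO2.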

Row | Structure (SMILES) | Liver Microsome Stability (Multiple Species): Human - % Remaining after 30 min w/NADPH [1] | pIC50 [2] | 24 hr Dox Inducible IL2FLGluc 293FRT/TO: IL2/PD1 [2] | Liver Microsome Stability (Multiple Species): Rat - % Remaining after 30 min w/NADPH [3] | pIC50 [4] | pEC50 [5] | pIC50 [6] | pEC50 [7] | Liver Microsome Stability (Multiple Species): Mouse - % Remaining after 30 min w/NADPH [8] | Liver Microsome Stability (Multiple Species): Monkey - % Remaining after 30 min w/NADPH [9] | pIC50 [10] | 24 hr Dox Inducible TNFaFLGluc 293FRT/TO: TNF/PD1 [10]
1 | CN(C)C(=O)c1ccc(N2CCC[C@@H]2c2csc(NC(=O)c3cccn3Cc3ccncc3)n2)cc1 [Compound A18, (R)-N-(4-(1-(4-(dimethylcarbamoyl)phenyl)pyrrolidin-2-yl)thiazol-2-yl)-1-(pyridin-4-ylmethyl)-1H-pyrrole-2-carboxamide] | 0.05% | 6.84 | 2.3 | 0.17% | 7.19 | < 4.60 | 6.96 | 5.80 | 3.75% | 0.08% | 5.99 | 15.9
2 | NC(=O)c1ccc(N2CCC[C@@H]2c2csc(NC(=O)c3cccn3Cc3ccncc3)n2)cc1 [Compound A19] | 0.48% | 8.04 | 3.7 | 0.39% | 8.61 | < 4.60 | 8.25 | 6.66 | 3.24% | 0.17% | 7.34 | 18.4
3 | Nc1ccc(N2CCC[C@@H]2c2csc(NC(=O)c3cccn3Cc3ccncc3)n2)cc1 [Compound A20] | 4.63% | 7.40 | 2.4 | 26.3% | 7.78 | 5.33 | 7.39 | 6.47 | 7.28% | 2.72% | 6.88 | 8
4 | Cc1ccc(N2CCC[C@@H]2c2csc(NC(=O)c3cccn3Cc3ccncc3)n2)cc1 [Compound A21, (R)-1-(pyridin-4-ylmethyl)-N-(4-(1-(p-tolyl)pyrrolidin-2-yl)thiazol-2-yl)-1H-pyrrole-2-carboxamide] | 4.28% | 8.41 | 4.3 | 11% | 9.05 | < 4.60 | 8.58 | 7.27 | 6.31% | 1.43% | 7.57 | 30.4
5 | O=C(Nc1nc([C@H]2CCCN2c2ccc(F)cc2)cs1)c1cccn1Cc1ccncc1 [Compound A25, (R)-N-(4-(1-(4-fluorophenyl)pyrrolidin-2-yl)thiazol-2-yl)-1-(pyridin-4-ylmethyl)-1H-pyrrole-2-carboxamide] | 3.01% | 7.76 | 1.8 | 1.84% | 8.00 | 4.79 | 7.68 | 6.39 | 1.56% | 1.66% | 6.62 | 24.2
6 | O=C(Nc1nc([C@H]2CCCN2c2ccc(Cl)cc2)cs1)c1cccn1Cc1ccncc1 [Compound A26, (R)-N-(4-(1-(4-chlorophenyl)pyrrolidin-2-yl)thiazol-2-yl)-1-(pyridin-4-ylmethyl)-1H-pyrrole-2-carboxamide] | 5.11% | 8.17 | 2.1 | 8.78% | 8.50 | 5.93 | 8.03 | 6.87 | 5.75% | 3.34% | 6.80 | 50.2
7 | O=C(Nc1nc([C@H]2CCCN2c2ccc([N+](=O)[O-])cc2)cs1)c1cccn1Cc1ccncc1 [Compound A27, (R)-N-(4-(1-(4-nitrophenyl)pyrrolidin-2-yl)thiazol-2-yl)-1-(pyridin-4-ylmethyl)-1H-pyrrole-2-carboxamide] | 1.61% | 6.84 | 2.5 | 0.33% | 7.24 | < 4.60 | 6.96 | 5.24 | 6.54% | 0.51% | 5.96 | 19.1
8 | O=C(Nc1nc([C@H]2CCCN2c2ccc(C(F)(F)F)cc2)cs1)c1cccn1Cc1ccncc1 [Compound A28, (R)-1-(pyridin-4-ylmethyl)-N-(4-(1-(4-(trifluoromethyl)phenyl)pyrrolidin-2-yl)thiazol-2-yl)-1H-pyrrole-2-carboxamide] | 16.4% | 7.97 | 1.9 | 51.5% | 8.24 | 5.00 | 7.94 | 6.60 | 30.3% | 3.97% | 6.86 | 23.9
9 | O=C(Nc1nc([C@H]2CCCN2c2cccnn2)cs1)c1cccn1Cc1ccncc1 [Compound A29, (R)-N-(4-(1-(pyridazin-3-yl)pyrrolidin-2-yl)thiazol-2-yl)-1-(pyridin-4-ylmethyl)-1H-pyrrole-2-carboxamide] | 0.59% | 5.65 | 4.1 | 4.6% | 6.27 | < 4.60 | 5.95 | < 4.60 | 1.4% | 0.39% | 4.88 | 24.4
10 | NCc1ccc(N2CCC[C@@H]2c2csc(NC(=O)c3cccn3Cc3ccncc3)n2)cc1 [Compound A44, (R)-N-(4-(1-(4-(aminomethyl)phenyl)pyrrolidin-2-yl)thiazol-2-yl)-1-(pyridin-4-ylmethyl)-1H-pyrrole-2-carboxamide] | 28.6% | 6.39 | 2.4 | 30% | 6.78 | 5.16 | 6.38 | 5.48 | 62.6% | 26% | 5.41 | 23.3
